Patent publication US9205050B2, “Antibiotic formulations, unit doses, kits and methods” (Bayer Intellectual Property GmbH, priority 2005, dated 2015)
Structures can show the parent of a compound that is named as a salt. Where two headings read alike, the source gives them in different places. One block for each molecule: values may come before it.

Experiments:
[1] = solubility study of Vancomycin HCl in water (saturated solution, UV 280 nm); assay type: physicochemical; settings: thermodynamic from solid, water for injection, stirred 48 h, filtered, read-out: maximum solubility in water
Method: A saturated solution of Vancomycin HCl in water for injection was prepared by adding under stirring the active agent to the solvent.
Suspension was stirred for 48 h in order to reach the equilibrium conditions for the dissolution.
Suspensions was filtered first through a paper filter and then through a 0.45 μm PVDF filter discarding the first drops of solution which could have been diluted because of the binding of the product to the membrane.
The filtrated solutions of Vancomycin HCl in water coming from the respective saturated solutions, was diluted to reach a final concentration which gave an Abs value at λ=280 nm included into the calibration curve.
Each diluted solution was analysed in triplicate with UV at λ=280 nm. For each solution the absorbances have been mediated and the final value has been substituted in the respective calibration curve equation to calculate the concentration.

[2] = pH of Vancomycin HCl solutions, bulk solution and reconstituted lyophilizate; assay type: physicochemical
Method: […] On the final solution, pH and density were measured and appearance was evaluated. After lyophilization the following analyses were performed on the final product: • water content by Karl Fischer titration; • appearance of the cake, • reconstitution time, • appearance/clarity, • pH after reconstitution.

[3] = density of Vancomycin HCl solutions; assay type: physicochemical
Method: On the final solution, pH and density were measured and appearance was evaluated. […]

[4] = particle size distribution of nebulized aerosol, laser diffraction; assay type: physicochemical; settings: solutions in WFI 60 to 140 mg/ml, fill 2 to 4 ml
CD rats = assay: 14-consecutive day nose-only inhalation toxicity and recovery; assay type: in vivo, rat
Method: This Example involved evaluating the potential toxicity and recovery resulting from a 14-consecutive day, nose-only inhalation administration of vancomycin hydrochloride (vancomycin) to CD rats.
The solution was used to generate aerosolized vancomycin for all vancomycin exposure groups.
Nose-only exposures were conducted in a “flow-past” cylindrical inhalation chamber placed inside a steel-framed Plexiglas secondary containment box. The chamber contained 48 animal ports, each compatible with a single nose-only exposure tube, aerosol concentration sampling device (e.g., filter), or oxygen monitor.
The total air flow through the exposure system was balanced to achieve individual animal port flows of ˜500 mL/min (port flow approximated based on total chamber flow). Measured flows included sample flow rate, nebulizer flow rate, dilution flow rate (chamber make-up air), and chamber exhaust flow.
Vancomycin solution was aerosolized with two Aerotech II nebulizers operated at 20 psi driving pressure. The target aerosol Vancomycin concentration for all exposure levels was ˜1.0 mg/L.
Aerosolized vancomycin was administered to 3 groups of male and female CD rats (available from Charles River Laboratories, Kingston, N.Y.) for durations of 30 min (Low), 90 min (Mid), and 180 min (High). A control group was exposed for 180 min to aerosols generated from a normal saline solution. Groups of rats from the Control and High level 14-day exposures were also studied following a 14-day recovery period. Endpoints included clinical observations, body weights, clinical pathology (hematology, clinical chemistry), urinalyses, organ weights, and histopathology.

[5] = 14-consecutive day face mask inhalation toxicity and recovery; assay type: in vivo, dog; settings: both sexes, beagle, dog, in vivo, inhaled, high exposure level (60 min)
Method: (§1) This Example involved evaluating the potential toxicity and recovery resulting from a 14-consecutive day, face mask inhalation administration of vancomycin hydrochloride to beagle dogs.
(§2) Within 2 hours prior to usage, a vancomycin nebulizer solution having a concentration of 120 mg/ml was formed by dissolving vancomycin hydrochloride (available from Alpharma, Copenhagen, Denmark) in sterile water for injection USP (available from B. Braun Medical Inc., Bethlehem, Pa.). The solution was used to generate aerosolized vancomycin for all vancomycin exposure groups.
(§3) The exposure system consisted of a single, cylindrical, plexiglass inhalation chamber (volume of ˜23.7 L, 14.61-cm radius, 35.56-cm height). The chamber was supplied with two Aerotech II nebulizers operated at ˜40 psi. Nebulized test article and nebulizer air supply was diluted with ˜10 L/min HEPA-filtered dilution air. The flow through the system was ˜36 L/min.
(§4) The aerosolized vancomycin was administered via a face mask to 3 groups of male and female beagle dogs for durations of 15 min (Low), 30 min (Mid), and 60 min (High). A control group was exposed for 60 min to aerosols generated from normal saline solution, i.e., 0.9% sodium chloride injection USP (available from B. Braun Medical Inc.).
(§5) Groups of dogs from the Control and High level 14-day exposures were also studied following a 14-day recovery period. Endpoints for all groups of dogs included physical examinations, clinical observations, body weights, opthalmology, cardiovascular EKG, clinical pathology (hematology, clinical chemistry), urinalyses, organ weights, histopathology, and toxicokinetics.

beagle dogs = assay: as above; assay type: in vivo, dog
Method: as §1, §2, §3, §4, §5

[6] = osmolality of gentamicin sulfate solutions; assay type: physicochemical
Method: Solubility in water was determined via visual assessment. Osmolality and pH were also determined. […] The solubility was determined by visual assessment.

[7] = exposure aerosol from 120 mg/ml solution

Molecule: CN[C@H](CC(C)C)C(=O)N[C@H]1C(=O)N[C@@H](CC(N)=O)C(=O)N[C@H]2C(=O)N[C@H]3C(=O)N[C@H](C(=O)N[C@H](C(=O)O)c4cc(O)cc(O)c4-c4cc3ccc4O)[C@H](O)c3ccc(c(Cl)c3)Oc3cc2cc(c3O[C@@H]2O[C@H](CO)[C@@H](O)[C@H](O)[C@H]2O[C@H]2C[C@](C)(N)[C@H](O)[C@H](C)O2)Oc2ccc(cc2Cl)[C@H]1O [Vancomycin HCl, vancomycin hydrochloride]
- solubility at 48 h [1]: 141 mg/mL
- pH ([2]; 100.12 mg/mL in water): 3.8-4.1
- pH ([2]; 110.16 mg/mL in water): 3.7-3.9
- pH ([2]; 120.26 mg/mL in water): 3.6-3.8
- pH ([2]; 130.5 mg/mL in water): 3.5-3.7
- pH ([2]; 140.8 mg/mL in water): 3.4-3.5
- Density ([3]; 100.12 mg/mL in water): 1.027 g/mL
- Density ([3]; 110.16 mg/mL in water): 1.034 g/mL
- Density ([3]; 120.26 mg/mL in water): 1.037 g/mL
- Density ([3]; 130.5 mg/mL in water): 1.042 g/mL
- Density ([3]; 140.8 mg/mL in water): 1.046 g/mL
- volume weighted median size [4]: 2-3 μm
- no observed effect level (CD rats; 14-day inhalation): not established
- tolerability of exposures (CD rats; 30, 90, 180 min/day, 14 days, about 1.2 mg/L): well-tolerated
- lung weight increase (CD rats; High exposure level (180 min)): ~19 % of control
- lung weight increase (CD rats; Low exposure level (30 min)): approximately 8 % of control
- increase in aspartate aminotransferase (AST) values (CD rats; Mid and High exposure levels): 28-46%
- neutrophils (hematology) (CD rats; Mid and High exposure levels): statistically significant increase
- lung weight increase (CD rats; Mid exposure level (90 min)): ~20 % of control
- histopathologic findings after recovery (CD rats; after 14 days of recovery, High level): substantial diminution of these findings
- body weight (CD rats; all exposure levels): no vancomycin treatment related effects
- clinical observations (CD rats; all exposure levels): no vancomycin related effects
- serum indicators of kidney function or urinalysis (CD rats; all exposure levels): No vancomycin related changes
- survival (CD rats; all exposure levels, 14 days): All rats survived to scheduled necropsy
- exposure related histopathologic findings (CD rats; end of 14-day exposure): limited to the respiratory tract
- mean particle size, mass median aerodynamic diameter (CD rats; [7]): 2.0-2.6 μm
- NOAEL at 14 days ([5]; read-out: no observed adverse effect level (NOAEL), deposited lung dose): 9 mg/kg
- NOAEL at 14 days ([5]; read-out: no observed adverse effect level (NOAEL), inhaled dose): 45 mg/kg
- recovery of histopathological effects (beagle dogs; 14-day recovery, High level): complete after 14 days
- tolerability of exposures (beagle dogs; 15, 30, 60 min/day, 14 days, about 1.4-1.5 mg/L): well-tolerated
- physical examinations, clinical observations, opthalmology, ECG, hematology, clinical chemistry, urinalyses, gross necropsy, organ weights (beagle dogs; all exposure levels): no vancomycin related effects
- survival (beagle dogs; all exposure levels, 14 days): All dogs survived to scheduled necropsy
- effects of exposure in histopathology (beagle dogs; end of 14-day exposure): limited to microscopic findings in the lung
- mean particle size, mass median aerodynamic diameter (beagle dogs; [7]): 1.9-2.6 μm

- Osmolality ([6]; 20 mg/ml active in 0.9% saline): 318 mOsmol/kg
- Osmolality ([6]; 20 mg/ml active in WFI): 61 mOsmol/kg
- Osmolality ([6]; 40 mg/ml active in 0.9% saline): 353 mOsmol/kg
- Osmolality ([6]; 40 mg/ml active in WFI): 101 mOsmol/kg
- Osmolality ([6]; 80 mg/ml active in 0.9% saline): 445 mOsmol/kg
- Osmolality ([6]; 80 mg/ml active in WFI): 197 mOsmol/kg
- Osmolality ([6]; 120 mg/ml active in WFI): 275 mOsmol/kg
- Osmolality ([6]; 200 mg/ml active in WFI): 524 mOsmol/kg
- Osmolality ([6]; 250 mg/ml active in WFI): 1178 mOsmol/kg
- Osmolality ([6]; 300 mg/ml active in WFI): 2013 mOsmol/kg
Molecule: gentamicin sulfate
